Data from ChEMBL document CHEMBL1145929, “Syntheses and binding studies of new [(aryl)(aryloxy)methyl]piperidine derivatives and related compounds as potential antidepressant drugs with high affinity for serotonin (5-HT) and norepinephrine (NE) transporters” (J Med Chem, 2003).

Columns and labels:
[1] = target: T1, 5-hydroxytryptamine receptor 1A (Rattus norvegicus, UniProt P19327); experiment: Binding affinity against 5-hydroxytryptamine 1A receptor (5-HT1A) by displacement of [3H]8-OH-DPAT from rat hippocampus membranes; assay type: cell membranes, Membrane
T1 sequence (P19327 whole entry): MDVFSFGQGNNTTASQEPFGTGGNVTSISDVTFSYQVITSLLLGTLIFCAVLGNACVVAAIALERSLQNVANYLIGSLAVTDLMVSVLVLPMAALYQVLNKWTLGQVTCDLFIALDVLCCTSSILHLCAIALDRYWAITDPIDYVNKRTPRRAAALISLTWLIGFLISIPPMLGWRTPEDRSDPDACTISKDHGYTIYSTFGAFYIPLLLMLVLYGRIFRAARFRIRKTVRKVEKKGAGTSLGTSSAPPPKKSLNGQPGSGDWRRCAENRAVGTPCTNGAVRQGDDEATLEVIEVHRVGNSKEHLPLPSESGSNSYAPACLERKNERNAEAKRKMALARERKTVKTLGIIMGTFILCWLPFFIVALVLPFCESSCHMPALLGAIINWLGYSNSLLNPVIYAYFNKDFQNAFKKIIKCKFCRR

[2] = target: T2, Sodium-dependent serotonin transporter (Rattus norvegicus, UniProt P31652); experiment: Binding affinity against serotonin transporter (SERT) by displacement of [3H]paroxetine in male wistar rats
T2 sequence (P31652 whole entry): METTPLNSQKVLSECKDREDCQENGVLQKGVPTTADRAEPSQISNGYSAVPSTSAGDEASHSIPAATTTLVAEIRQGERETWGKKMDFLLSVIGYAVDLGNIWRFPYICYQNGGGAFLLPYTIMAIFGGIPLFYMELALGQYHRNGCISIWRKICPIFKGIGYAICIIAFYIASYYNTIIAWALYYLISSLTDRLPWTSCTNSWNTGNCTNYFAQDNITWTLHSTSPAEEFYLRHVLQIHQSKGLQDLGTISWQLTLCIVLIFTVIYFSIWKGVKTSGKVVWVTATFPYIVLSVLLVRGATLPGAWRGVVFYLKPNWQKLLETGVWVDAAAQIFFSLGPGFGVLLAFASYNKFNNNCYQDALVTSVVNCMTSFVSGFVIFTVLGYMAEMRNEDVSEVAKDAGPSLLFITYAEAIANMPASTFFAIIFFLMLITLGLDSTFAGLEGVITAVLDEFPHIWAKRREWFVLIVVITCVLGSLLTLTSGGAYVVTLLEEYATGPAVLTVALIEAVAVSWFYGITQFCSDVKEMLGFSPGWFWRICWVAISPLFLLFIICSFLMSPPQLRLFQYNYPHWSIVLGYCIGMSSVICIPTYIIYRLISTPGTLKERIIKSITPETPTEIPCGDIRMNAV

[3] = target: 5-hydroxytryptamine receptor 2A (Rattus norvegicus, UniProt P14842); experiment: Binding affinity against 5-hydroxytryptamine 2A receptor by displacement of [3H]-ketanserin from rat prefrontal cerebral cortex mambranes; assay type: tissue-based, Frontal cortex
5-hydroxytryptamine receptor 2A, sequence (P14842 whole entry): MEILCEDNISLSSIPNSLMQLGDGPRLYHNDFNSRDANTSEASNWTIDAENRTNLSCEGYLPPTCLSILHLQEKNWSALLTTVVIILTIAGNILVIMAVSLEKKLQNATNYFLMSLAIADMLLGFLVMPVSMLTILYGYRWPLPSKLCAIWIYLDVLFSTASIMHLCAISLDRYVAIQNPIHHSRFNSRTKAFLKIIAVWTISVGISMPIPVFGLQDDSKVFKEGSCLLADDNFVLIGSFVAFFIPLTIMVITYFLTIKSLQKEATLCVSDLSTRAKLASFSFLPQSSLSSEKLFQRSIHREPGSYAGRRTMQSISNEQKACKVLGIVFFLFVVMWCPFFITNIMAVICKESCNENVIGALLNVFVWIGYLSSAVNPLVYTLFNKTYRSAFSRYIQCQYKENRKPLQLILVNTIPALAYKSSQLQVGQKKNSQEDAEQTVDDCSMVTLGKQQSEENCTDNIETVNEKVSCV

[4] = target: T2, Sodium-dependent serotonin transporter; experiment: Binding affinity to the serotonin transporter (SERT) measured by displacement of [3H]paroxetine in male wistar rats

SMILES | IC50 [1] [µM] | IC50 [2] [µM] | IC50 [3] [µM] | Ki [4] [µM]
Cc1c(F)cccc1OC(c1ccccc1)C1CCNCC1 (centres undefined) | > 1 |  | > 1 | 0.0053
Fc1ccccc1OC(c1ccccc1)C1CCNCC1 (stereo in doubt; 15b) | > 1 |  | > 1 | 0.0063
Fc1ccc(OC(c2ccc(F)cc2)C2CCNCC2)cc1 (centres undefined) | > 1 |  | > 1 | 0.0009
Oc1ccc(OC(c2ccccc2)C2CCNCC2)cc1F (centres undefined) | > 1 |  | > 1 | 0.0213
N#Cc1ccc(OC(c2ccccc2)C2CCNCC2)cc1Cl (centres undefined) | > 1 |  | > 1 | 0.0039
N#Cc1ccc(OC(CC2CCNCC2)c2ccc(F)cc2)cc1 (centres undefined) | > 1 |  | > 1 | 0.0169
Oc1c(F)cccc1OC(c1ccccc1)C1CCNCC1 (centres undefined) | > 1 |  | > 1 | 0.0155
CNCCC(Oc1ccccc1OC)c1ccccc1 (centres undefined) [NISOXETINE] | > 1 |  | > 1 | 
Fc1cc(F)cc(OC(c2ccccc2)C2CCNCC2)c1 (stereo in doubt; 15aj) | > 1 |  | > 1 | 0.0034
Fc1ccc(OC(c2ccc(Cl)cc2)C2CCNCC2)cc1 (centres undefined) | > 1 |  | > 1 | 0.0075
Fc1cccc(OC(c2cccc(F)c2)C2CCNCC2)c1 (stereo in doubt; (-)-15u) | > 1 |  | > 1 | 
Oc1cc(F)cc(OC(c2ccccc2)C2CCNCC2)c1 (centres undefined) | > 1 |  | > 1 | 0.002
Ic1cccc(OC(c2ccccc2)C2CCNCC2)c1 (centres undefined) | > 1 |  | > 1 | 0.0037
Fc1ccc(C(Oc2ccc3c(c2)OCO3)C2CCCNC2)cc1 (centres undefined) | > 1 |  | > 1 | 0.0042
Fc1cccc(OC(c2cccc(F)c2)C2CCNCC2)c1 (stereo in doubt; 15u) | > 1 |  | > 1 | 0.0161
N#Cc1ccc(OC(c2ccc(F)cc2)C2CCCNC2)cc1 (centres undefined) | > 1 |  | > 1 | 0.04
Clc1ccc(C(Oc2ccccc2)C2CCNCC2)cc1 (centres undefined) | > 1 |  | > 1 | 0.0194

SMILES | IC50 [1] [µM] | IC50 [2] [µM] | IC50 [3] [µM] | Ki [4] [µM]
COc1ccc(OC(c2ccc(F)cc2)C2CCNCC2)cc1 (centres undefined) | > 1 |  | > 1 | 0.0009
Fc1ccc(C(Oc2ccc(Cl)c(Cl)c2)C2CCCNC2)cc1 (centres undefined) | > 1 |  | > 1 | 0.0322
Fc1cccc(C(Oc2ccccc2F)C2CCNCC2)c1 (stereo in doubt; 15t) | > 1 |  | > 1 | 0.0093
COc1ccc(OC(CC2CCNCC2)c2ccccc2)cc1 (centres undefined) | > 1 |  | > 1 | 0.047
N#Cc1cccc(OC(c2ccccc2)C2CCNCC2)c1 (stereo in doubt; 15k) | > 1 |  | > 1 | 0.001
COc1cc(F)cc(OC(c2ccccc2)C2CCNCC2)c1 (centres undefined) | > 1 |  | > 1 | 0.0019
COc1ccc(C(CN(C)C)C2(O)CCCCC2)cc1 (centres undefined) [VENLAFAXINE] | > 1 |  |  | 
Fc1cccc(OC(c2ccccc2)C2CCNCC2)c1 (stereo in doubt; 15j) | > 1 |  | > 1 | 
Fc1ccc(C(Oc2ccc(C(F)(F)F)cc2)C2CCCNC2)cc1 (centres undefined) | > 1 |  | > 1 | 0.0262
Brc1ccc(OC(c2ccccc2)C2CCNCC2)cc1 (stereo in doubt; 15r) | > 1 |  | > 1 | 0.002
FC(F)(F)c1ccc(OC(c2ccccc2)C2CCNCC2)cc1 (centres undefined) | > 1 |  | > 1 | 0.0171
Cc1c(Cl)cccc1OC(c1ccccc1)C1CCNCC1 (centres undefined) | > 1 |  | > 1 | 0.0122
COc1ccc(OC(c2ccc(F)cc2)C2CCCNC2)cc1 (centres undefined) | > 1 |  | > 1 | 0.0208
Cc1ccc(C(Oc2cccc(F)c2)C2CCNCC2)cc1 (centres undefined) | > 1 |  | > 1 | 0.0141
FC(F)(F)c1ccccc1OC(c1ccccc1)C1CCNCC1 (centres undefined) | > 1 |  | > 1 | 0.124
O=[N+]([O-])c1ccc(OC(c2ccccc2)C2CCNCC2)cc1 (stereo in doubt; 15m) | > 1 |  | > 1 | 0.0024

The remaining lines, values ahead:

IC50 [1] [µM] | IC50 [2] [µM] | IC50 [3] [µM] | Ki [4] [µM] | SMILES
> 1 | > 1 | > 1 |  | Oc1cc2c(cc1O)CN(CCC(Oc1ccccc1C(F)(F)F)c1ccccc1)CC2 (centres undefined)
> 1 |  | > 1 | 0.0206 | Ic1ccc(OC(c2ccccc2)C2CCNCC2)cc1 (centres undefined)
> 1 | > 1 | > 1 |  | FC(F)(F)c1ccccc1OC(CCN1CCc2ccccc2C1)c1ccccc1 (centres undefined)
> 1 |  |  |  | Fc1ccc([C@@H]2CCNC[C@H]2COc2ccc3c(c2)OCO3)cc1 [PAROXETINE]
> 1 |  | > 1 | 0.0083 | c1ccc(C(Oc2cccc3ccccc23)C2CCNCC2)cc1 (stereo in doubt; 15au)
> 1 |  | > 1 | 0.0215 | Fc1ccc(C(Oc2cccc3ccccc23)C2CCCNC2)cc1 (centres undefined)
> 1 |  | > 1 | 0.0026 | N#Cc1cc(F)cc(OC(c2ccccc2)C2CCNCC2)c1 (centres undefined)
> 1 |  | > 1 | 0.0139 | Fc1ccc(C(Oc2ccc(Cl)cc2)C2CCCNC2)cc1 (centres undefined)
> 1 |  | > 1 | 0.134 | COc1cc2c(cc1OC)CN(CCC(Oc1ccccc1C(F)(F)F)c1ccccc1)CC2 (centres undefined)
> 1 |  | > 1 | 0.0099 | Clc1ccc(OC(c2ccccc2)C2CCNCC2)cc1Cl (centres undefined)
> 1 |  | > 1 |  | Fc1ccc(OC(c2ccccc2)C2CCNCC2)cc1 (single isomer, unassigned; (-))
> 1 |  | > 1 | 0.0011 | Fc1ccc(OC(c2ccccc2)C2CCNCC2)cc1 (stereo in doubt; 15p)
> 1 |  | > 1 | 0.0234 | Fc1ccc(OC(c2ccc(F)cc2)C2CCCNC2)cc1 (centres undefined)
> 1 |  | > 1 | 0.0406 | Fc1ccc(C(Oc2ccccc2)C2CCCNC2)cc1 (centres undefined)
> 1 |  | > 1 | 0.0082 | Clc1ccccc1OC(c1ccccc1)C1CCNCC1 (centres undefined)
> 1 |  | > 1 | 0.207 | COc1cc2c(cc1OC)CN(CCC(Oc1ccccc1F)c1ccccc1)CC2 (centres undefined)
> 1 |  | > 1 | 0.0156 | Cc1ccc(Cl)cc1OC(c1ccccc1)C1CCNCC1 (centres undefined)
> 1 |  | > 1 | 0.0226 | Cc1ccc(OC(c2ccc(F)cc2)C2CCCNC2)cc1 (centres undefined)
> 1 |  | > 1 |  | Clc1cccc(OC(c2ccccc2)C2CCNCC2)c1 (stereo in doubt; 15l)
> 1 |  | > 1 | 0.105 | N#Cc1ccccc1OC(c1ccccc1)C1CCNCC1 (centres undefined)
> 1 |  | > 1 | 0.0023 | c1ccc(OC(c2ccccc2)C2CCNCC2)cc1 (centres undefined)
> 1 |  | > 1 | 0.009 | FC(F)(F)c1cccc(OC(c2ccccc2)C2CCNCC2)c1 (centres undefined)
> 1 |  | > 1 | 0.01 | Brc1cccc(OC(c2ccccc2)C2CCNCC2)c1 (centres undefined)
